Laboratory results taken from patent US4732970A, “Antitumor amino acid and peptide derivatives of 1,4-bis(aminoalkyl and hydroxy-aminoalkyl)amino)-5,8-dihydroxyanthraquinones” (priority 1986, dated 1988).

Tests used:
[1] = tested on: lymphocytic leukemia P388; test: Lymphocytic Leukemia P388 Test; format: in vivo, BDF1 mice; settings: for Median Survival: BDF1 mice; for T/C × 100 (%): ratio of survival time treated/control
Procedure, shortened: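 BDF1 mice (5–6 per group) were inoculated i.p. with 10^6 P388 cells, then dosed i.p. on days 1, 5 and 9 at various doses. Survival was followed for 60 days, and median survival time and the treated/control (T/C) survival ratio were calculated.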

[2] = tested on: melanotic melanoma B16 tumor; test: Melanotic Melanoma B16 test; format: in vivo, BDF1 mice; settings: for Median Survival: BDF1 mice; for T/C × 100 (%): ratio of survival time treated/control
Protocol: The animals used were BDFl mice, all of the same sex, weighing a minimum of 17 g and all within a 3 g weight range. There were 12 animals per test group. A 1 g portion of melanotic melanoma B16 tumor was homogenized in 10 ml of cold balanced salt solution and a 0.5 ml aliquot of the homogenate was implanted intraperitoneally into each of the test mice. The test compounds were administered intraperitoneally on days 1, 5 and 9 (relative to tumor inoculation) at various doses. The animals were weighed and survivors recorded on a regular basis for 60 days. The median survival time and ratio of survival time for treated (T)/control (C) animals were calculated. The positive control compound was 1,4-bis[(2-aminoethyl)amino]-5,8-dihydroxyanthraquinone, dihydrochloride (U.S. patent application Ser. No. 87,354, filed Oct. 23, 1979).

[3] = dose 0.75 mg/kg intraperitoneally on days 1, 5 and 9
[4] = dose 1.5 mg/kg intraperitoneally on days 1, 5 and 9
[5] = dose 3 mg/kg intraperitoneally on days 1, 5 and 9

Cl.Cl.N[C@@H](CCC(=O)O)C(=O)NCCNc1ccc(NCCNC(=O)[C@@H](N)CCC(=O)O)c2c1C(=O)c1c(O)ccc(O)c1C2=O (relative stereo) [Example 23, [S-(R*,R*)]-5,5'-[(9,10-Dihydro-5,8-dihydroxy-9,10-dioxo-1,4-anthracenediyl)bis(imino-2,1-ethanediylimino)]-bis[4-amino-5-oxo-pentanoic acid], dihydrochloride]
Median Survival [1, 3]: 22.0 days
T/C × 100 (%) [1, 3]: 220%
Median Survival [1, 4]: 24.5 days
T/C × 100 (%) [1, 4]: 245%
Median Survival [1, 5]: 41.0 days
T/C × 100 (%) [1, 5]: 410%
Median Survival [2, 3]: 27.5 days
T/C × 100 (%) [2, 3]: 162%
Median Survival [2, 4]: 31.0 days
T/C × 100 (%) [2, 4]: 182%
Median Survival [2, 5]: 22.0 days
T/C × 100 (%) [2, 5]: 129%

C[C@@H](O)[C@H](N)C(=O)NCCNc1ccc(NCCNC(=O)[C@@H](N)[C@@H](C)O)c2c1C(=O)c1c(O)ccc(O)c1C2=O.O=C(O)C(F)(F)F.O=C(O)C(F)(F)F (relative stereo) [Example 26, [2S-(2R*,2'R*,3S*,3'S*)]-N,N'-[(9,10-Dihydro-5,8-dihydroxy-9,10-dioxo-1,4-anthracenediyl)bis(imino-2,1-ethanediyl)]bis[2-amino-3-hydroxybutanamide]bis(trifluo roacetate)]
Median Survival [1, 3]: 21.0 days
T/C × 100 (%) [1, 3]: 210%
Median Survival [1, 4]: 22.5 days
T/C × 100 (%) [1, 4]: 225%
Median Survival [1, 5]: 33.5 days
T/C × 100 (%) [1, 5]: 335%
Median Survival [2, 3]: 35.0 days
T/C × 100 (%) [2, 3]: 206%
Median Survival [2, 4]: 39.5 days
T/C × 100 (%) [2, 4]: 232%
Median Survival [2, 5]: 40.0 days
T/C × 100 (%) [2, 5]: 235%

Br.Br.Br.Br.NCCCC[C@H](N)C(=O)NCCNc1ccc(NCCNC(=O)[C@@H](N)CCCCN)c2c1C(=O)c1c(O)ccc(O)c1C2=O (relative stereo) [Example 33, [S-(R*,R*)]-N,N'-[(9,10-Dihydro-5,8-dihydroxy-9,10-dioxo-1,4-anthracenediyl)bis(imino-2,1-ethanediyl)]bis[2,6-diaminohexanamide], tetrahydrobromide]
Median Survival [1, 3]: 23.0 days
T/C × 100 (%) [1, 3]: 230%
Median Survival [1, 4]: 33.0 days
T/C × 100 (%) [1, 4]: 330%
Median Survival [1, 5]: 13.0 days
T/C × 100 (%) [1, 5]: 130%
Median Survival [2, 3]: 26.5 days
T/C × 100 (%) [2, 3]: 156%
Median Survival [2, 4]: 37.5 days
T/C × 100 (%) [2, 4]: 221%
Median Survival [2, 5]: 25.5 days
T/C × 100 (%) [2, 5]: 162%

Cl.Cl.NCCNc1ccc(NCCN)c2c1C(=O)c1c(O)ccc(O)c1C2=O [1,4-bis[(2-aminoethyl)amino]-5,8-dihydroxyanthraquinone, dihydrochloride, reference compound]
Median Survival [2, 4]: 46.5 days
T/C × 100 (%) [2, 4]: 274%

Br.Br.C[C@H](NCCNc1ccc(NCCN[C@@H](C)C(=O)N[C@@H](CCCNC(=N)N)C(=O)OC(C)(C)C)c2c1C(=O)c1c(O)ccc(O)c1C2=O)C(=O)N[C@@H](CCCNC(=N)N)C(=O)OC(C)(C)C [Example 87, N,N'-[(9,10-Dihydro-5,8-dihydroxy-9,10-dioxo-1,4-anthracenediyl)bis(imino-2,-ethanediyl)]bis[L-alanyl-L-arginine]bis(1,1-dimethylethyl)ester, dihydrobromide]
Median Survival [1, 3]: 17.0 days
T/C × 100 (%) [1, 3]: 170%
Median Survival [1, 4]: 19.0 days
T/C × 100 (%) [1, 4]: 190%
Median Survival [1, 5]: 20.5 days
T/C × 100 (%) [1, 5]: 205%

Br.Br.Br.Br.C[C@H](N)C(=O)N[C@@H](CCCNC(=N)N)C(=O)NCCNc1ccc(NCCNC(=O)[C@H](CCCNC(=N)N)NC(=O)[C@H](C)N)c2c1C(=O)c1c(O)ccc(O)c1C2=O [Example 88, N,N'-[(9,10-Dihydro-5,8-dihydroxy-9,10-dioxo-1,4-anthracenediyl)bis(imino-2,1-ethanediyl)]bis-[L-alanyl-L-argininamide]tetrahydrobromide]
Median Survival [1, 3]: 22.5 days
T/C × 100 (%) [1, 3]: 225%
Median Survival [1, 4]: 33.0 days
T/C × 100 (%) [1, 4]: 330%
Median Survival [1, 5]: 44.0 days
T/C × 100 (%) [1, 5]: 440%

Br.Br.C[C@H](NC(=O)OC(C)(C)C)C(=O)N[C@@H](C)C(=O)N[C@@H](CCCNC(=N)N)C(=O)NCCNc1ccc(NCCNC(=O)[C@H](CCCNC(=N)N)NC(=O)[C@H](C)NC(=O)[C@H](C)NC(=O)OC(C)(C)C)c2c1C(=O)c1c(O)ccc(O)c1C2=O [Example 89, N,N'-[(9,10-Dihydro-5 8-dihydroxy-9,10-dioxo-1,4-anthracenediyl)bis(imino-2,1-ethanediyl)]bis[N-[(1,1-dimethylethoxy)carbonyl]-L-alanyl-L-alanyl-L-argininamide]-dihydrobromide]
Median Survival [1, 3]: 17.0 days
T/C × 100 (%) [1, 3]: 155%
Median Survival [1, 4]: 17.5 days
T/C × 100 (%) [1, 4]: 159%
Median Survival [1, 5]: 24.5 days
T/C × 100 (%) [1, 5]: 223%

Br.Br.C[C@H](N)C(=O)N[C@@H](C)C(=O)N[C@@H](CCCNC(=N)N)C(=O)NCCNc1ccc(NCCNC(=O)[C@H](CCCNC(=N)N)NC(=O)[C@H](C)NC(=O)[C@H](C)N)c2c1C(=O)c1c(O)ccc(O)c1C2=O.O=C(O)C(F)(F)F.O=C(O)C(F)(F)F [Example 90, N,N'-[(9,10-Dihydro-5,8-dihydroxy-9,10-dioxo-1,4-anthracenediyl)bis(imino-2,1-ethanediyl)]bis[L-alanyl-L-alanyl-L-argininamide], dihydrobromide, bis(trifluoroacetate)]
Median Survival [1, 3]: 23.5 days
T/C × 100 (%) [1, 3]: 214%
Median Survival [1, 4]: 23.5 days
T/C × 100 (%) [1, 4]: 214%
Median Survival [1, 5]: 19.5 days
T/C × 100 (%) [1, 5]: 177%

Br.Br.C[C@H](NC(=O)[C@H](CO)NC(=O)[C@H](CCCNC(=N)N)NC(=O)OCc1ccccc1)C(=O)NCCNc1ccc(NCCNC(=O)[C@H](C)NC(=O)[C@H](CO)NC(=O)[C@H](CCCNC(=N)N)NC(=O)OCc2ccccc2)c2c1C(=O)c1c(O)ccc(O)c1C2=O [Example 93, N,N'-[(9,10-Dihydro-5,8-dihydroxy-9,10-dioxo-1,4-anthracencdiyl)bis(imino-2,1-ethanediyl)][L-alanyl-L-seryl-carbobenzyloxy-L-argininamide]dihydrobromide]
Median Survival [1, 3]: 22.0 days
T/C × 100 (%) [1, 3]: 200%
Median Survival [1, 4]: 22.5 days
T/C × 100 (%) [1, 4]: 205%
Median Survival [1, 5]: 24.5 days
T/C × 100 (%) [1, 5]: 223%

Br.Br.Br.Br.C[C@H](NC(=O)[C@H](CO)NC(=O)[C@@H](N)CCCNC(=N)N)C(=O)NCCNc1ccc(NCCNC(=O)[C@H](C)NC(=O)[C@H](CO)NC(=O)[C@@H](N)CCCNC(=N)N)c2c1C(=O)c1c(O)ccc(O)c1C2=O [Example 94, N,N'-[(9,10-Dihydro-5,8-dihydroxy-9,10-dioxo-1,4-anthracenediyl)bis(imino-2,1-ethanediyl)]bis[L-arginyl-L-seryl-L-alaninamide], tetrahydrobromide]
Median Survival [1, 3]: 21.5 days
T/C × 100 (%) [1, 3]: 195%
Median Survival [1, 4]: 21.0 days
T/C × 100 (%) [1, 4]: 191%
Median Survival [1, 5]: 34.5 days
T/C × 100 (%) [1, 5]: 314%

N,N'-[(9,10-Dihydro-5,8-dihydroxy-9,10-dioxo-1,4-anthracenediyl)bis(imino-2,1-ethanediyl)]bis[L-alanyl-L-alanine]bis(trifluoroacetate) [Example 72]
Median Survival [1, 3]: 20.0 days
T/C × 100 (%) [1, 3]: 190%
Median Survival [1, 4]: 20.0 days
T/C × 100 (%) [1, 4]: 190%
Median Survival [1, 5]: 23.0 days
T/C × 100 (%) [1, 5]: 219%

N,N'-[(9,10-Dihydro-5,8-dihydroxy-9,10-oxo-1,4-anthracenediyl)bis(imino-2,1-ethanediyl) ]bis[L-arginine(phenylmethyl)]ester, dihydrobromide [Example 85]
Median Survival [1, 3]: 21.5 days
T/C × 100 (%) [1, 3]: 179%
Median Survival [1, 4]: 21.0 days
T/C × 100 (%) [1, 4]: 175%
Median Survival [1, 5]: 22.5 days
T/C × 100 (%) [1, 5]: 188%

[S-(R*,R*)][(9,10-Dihydro-5,8-dihydroxy-9,10-dioxo-1,4-anthracenediyl)bis[1-[3-[[imino(nitroamino)methyl]amino]propyl]-2-oxo-2,1-ethanediyl]]bis-carbamic acid, bis(phenylmethyl)ester [Example 91]
Median Survival [1, 3]: 15.5 days
T/C × 100 (%) [1, 3]: 141%
Median Survival [1, 4]: 16.5 days
T/C × 100 (%) [1, 4]: 150%
Median Survival [1, 5]: 18.0 days
T/C × 100 (%) [1, 5]: 164%

[S-(R*,R*)][(9,10-Dihydro-5,8-dihydroxy-9,10-dioxo-1,4-anthracenediyl)bis[imino-2,1-ethanediylimino[1-[3-[[imino[[(phenylmethoxy)carbonyl]amino]methyl][(phenylmethoxy)carbonyl]propyl]-2-oxo-2,1-ethanediyl]]]carbamic acid, bis(phenylmethyl)ester [Example 95]
Median Survival [1, 3]: 14.0 days
T/C × 100 (%) [1, 3]: 127%
Median Survival [1, 4]: 16.0 days
T/C × 100 (%) [1, 4]: 145%
Median Survival [1, 5]: 16.0 days
T/C × 100 (%) [1, 5]: 145%
